Reference: article PMC5527305, “Prevention of Ophthalmia Neonatorum Caused by Neisseria gonorrhoeae Using a Fatty Acid-Based Formulation” (mBio, 2017)

Experiments:
Format in all cases: cell-based, Neisseria gonorrhoeae
[1] = test system: N. gonorrhoeae on human corneal epithelial cells; test: LIVE/DEAD staining of gonococcus-infected human corneal epithelial cells; conditions: 1 mM
Protocol: The LIVE/DEAD BacLight bacterial viability kit for microscopy (Life Technologies, Inc.) was used according to manufacturer’s instructions. After the course of infection, the culture wells were washed five times with sterile 0.85% NaCl to remove nonadhered bacterial cells. Stain was added to each well for 15 min at room temperature before washing in 0.85% saline solution was performed. Glass coverslips were mounted in BacLight mounting oil and visualized on a Nikon Eclipse i80 fluorescence microscope (Nikon United Kingdom) as detailed above.

[2] = test system: N. gonorrhoeae strain NCCP11945; test: Growth inhibition screen on GC solid media containing 1 mM candidate; conditions: 1 mM candidate in GC agar media; Yes = strain NCCP11945 did not grow
Protocol: To find potential candidates, 37 organic acids, esters, and salts were tested in a two-tiered screening process. These candidates were chosen based on the carbon chain lengths of the fatty acids, the presence or absence of saturation, and modifications to represent a diverse selection of organic acid candidates. The first screen aimed to determine the ability of each compound to inhibit the growth of N. gonorrhoeae strain NCCP11945 at 1 mM in GC solid media (Table 1). This strain was chosen due to its relatively recent isolation, its antibiotic resistance profile, and the availability of a complete genome sequence. Those candidates able to inhibit the growth of N. gonorrhoeae strain NCCP11945 were investigated in a second assay. The second assay tested the ability of each compound to cause at least a 4-log reduction in viable bacteria at 1 mM with a 2-min exposure time (Table 1).
The well-characterized N. gonorrhoeae NCCP11945 strain ([36]) was used in the screening stage. Eight isolates obtained from Public Health England, representing circulating isolates from various European locations, were used in the log reduction assays. All isolates were cultured for 24 h prior to testing by plating on GC solid medium (Oxoid Limited, Hampshire, United Kingdom) with Kellogg supplements and incubation at 37°C and 5% CO2 ([37]).

[3] = test system: gonococcal cells (isolate NCCP 11945); test: Log reduction in artificial tear fluid with or without calcium chloride; conditions: calcium 1 mM; Fig. 2
Protocol: The antigonococcal properties of the seven selected fatty acids were tested in artificial tear fluid, which contained calcium chloride. The addition of 1 mM lauric acid, tridecanoic acid, or sodium dodecanoate gave no reduction in bacterial cell number after exposure, in contrast to the results seen when they were tested in culture medium (Fig. 2). […] This was most likely due to the negative effect of calcium on the aqueous solubility of these candidates.
Artificial tear fluid was made as described by Mirejovsky and others ([39]) with or without calcium chloride. […] As with the previous log reductions, 10^7 gonococcal cells (isolate NCCP 11945) were suspended in GC broth. The cell suspension was centrifuged to remove the culture medium, and the bacteria were resuspended in the tear fluid. This was then added to the concentrated organic acid candidates. The cells were then enumerated again after 2 min of exposure to estimate any reduction in cell number due to the exposure to the organic acid.

In the case of CCCCCCCCCC(=O)OCC(O)CO (stereo not shown) [Monocaprin], the “LIVE/DEAD staining of bacteria on infected corneal cells” value [1] is reported as “only dead bacterial cells”, the “Viable bacteria recovered from treated wells” value [1] is reported as “No viable bacteria were recovered” and the Growth inhibition [2] is reported as “Yes”. For the same compound, the “Effect of calcium in artificial tear fluid on antimicrobial effect” value [3] was “unaffected”.
